US20230159516A1 (priority 2020, published 2023)

Tested on: SARS-CoV-2
Assay type: cell-based

| Structure (SMILES) | block of the cytopathic effect (CPE) of SARS-CoV-2 |
| --- | --- |
| O=C(Oc1cncc(Cl)c1)c1cccc2c1CCN2 [CTRL-1720S] | significantly block the cytopathic effect |
| COc1cccc2[nH]c(C(=O)N[C@@H](CC(C)C)C(=O)N[C@@H](C[C@@H]3CCNC3=O)C(=O)c3nc4ccccc4s3)cc12 [GRL-2420S] | significantly block the cytopathic effect |
